Results from patent US20100041089A1, “IMPROVED METHOD FOR DETECTING CHEMICAL […]” (priority 2006, published 2010).

Tested on: yeast genes (expressed mRNA)
Test: DNA chip measurement of expressed mRNA of yeast genes after culture with a toxic chemical substance
Format: cell-based, Saccharomyces cerevisiae S288C
Procedure: Yeast (Saccharomyces cerevisiae S288C (a SUC2mal mel gap2 CUP1)) were cultured at 25° C. on YPD medium (yeast extract 1%, polypeptone 2%, glucose 2%). One of toxic chemical substances was added to the cell at logarithmic growth phase, and the cell was further cultured for two hours. Cell was cultured without any chemical substance in the same condition, and was used as a control. Concentrations of the chemical substances were defined to inhibit the growth of the yeast but not lead to death.
After the completion of cultivation, the culture was centrifuged to collect the cells. To the cells, sodium acetate buffer (50 mM sodium acetate, 10 mM EDTA, 1% SDS) was added, and the mixture was shaken at 65° C. for five minutes, followed by returning to room temperature, and obtaining the supernatant, which procedure was repeated two times. To the supernatant, ½ amount of a solution of phenol/chloroform (1:1) was added, and the mixture was centrifuged to give a supernatant, an equal amount of chloroform was added, and the mixture was centrifuged to give a supernatant. To the supernatant, an equal amount of isopropanol containing 0.3 M sodium acetate was added, and the mixture was allowed to stand at room temperature for 30 minutes, after which the mixture was centrifuged to give sediment of the whole RNAs. Seventy % ethanol was added to the sediment, and the mixture was again centrifuged to give sediment, which was then dried and dissolved in water. mRNA was isolated from the whole RNAs as followings. In view of the fact that a poly A chain is attached to the 3′ terminus of mRNA, a polynucleotide having a poly T structure which was immobilized on the surface of latex beads was used to trap the mRNA, and then the mRNA was washed and eluted with spine column (Oligotex-dT30<Super>mRNA Purification Kit, Takara). Reverse transcription of the mRNA was conducted with a reverse transcriptase (Super Script II Reverse Transcriptase; catalogue No. 18064-014, GibcoBRL) using fluorescence-labeled nucleotides to give cDNAs that were introduced with Cy3-dUTP or Cy5-dUTP during the reverse transcription.
The labeled cDNAs were dissolved in TE buffer (10 mM Tris-HCl/1 mM EDTA, pH 8.0), and the solution was dropped on the DNA chip containing the whole genes of yeast (DNA Chip Research Inc. Japan) so that the cDNAs were hybridized on the DNA chip at 65° C. for over 12 hours. The fluoresces intensity of the DNA chip was read with a scanner, and the ratio relative to the fluorescence intensity resulting from the absence of chemical substance was estimated as the following, which is shown in Tables 1 to 9.
In the Tables, “Intensity” indicated in the rightmost column is a value of the level of expressed mRNA of each gene in control cells as divided by the average level of the expressions of the whole genes. A gene of which mRNA level is lower in control, and is higher in cases of addition of chemical substance, is especially useful in the detection of toxic substances.
Here, when a ratio of an amount of mRNA expressed in the presence of the chemical substance to an amount of mRNA expressed in the absence of the chemical substance is two or more, then it is considered significant.

Measured: The level of expressed mRNA in the presence of chemical substance/The level of expressed mRNA in the absence of chemical substance

COc1cc(CNC(=O)CCCCC=CC(C)C)ccc1O [(12), 8-Methyl-N-vanillyl-6-nonenamide]
6.7: yeast gene YOR049C, cultured two hours with substance
0.7: yeast gene YNL281W, cultured two hours with substance | yeast gene YNR064C, cultured two hours with substance
1.8: yeast gene YPL087W, cultured two hours with substance
1.3: yeast gene YNR068C, cultured two hours with substance | yeast gene YOL058W | yeast gene YPL222W, cultured two hours with substance | yeast gene YPR167C
0.9: yeast gene YNL156C, cultured two hours with substance | yeast gene YNL331C | yeast gene YOL064C (stress protein genes) | yeast gene YOL117W, cultured two hours with substance | yeast gene YOL131W, cultured two hours with substance | yeast gene YOR130C, metabolism protein genes | yeast gene YPL194W (stress protein genes) | yeast gene YPL196W, cultured two hours with substance | yeast gene YPR023C, cultured two hours with substance | yeast gene YPR151C, cultured two hours with substance
2.9: yeast gene YOL150C, cultured two hours with substance
3.2: yeast gene YNL211C, cultured two hours with substance
1.4: yeast gene YOL162W, cultured two hours with substance
2.8: yeast gene YOR382W, cultured two hours with substance
0.5: yeast gene YOR248W, cultured two hours with substance
1.2: yeast gene YOL083W, cultured two hours with substance
1.0: yeast gene YNL169C | yeast gene YNL190W, cultured two hours with substance | yeast gene YOL032W, cultured two hours with substance | yeast gene YOL036W, cultured two hours with substance | yeast gene YOL071W, cultured two hours with substance | yeast gene YOL082W, cultured two hours with substance | yeast gene YOR019W, cultured two hours with substance | yeast gene YOR197W, cultured two hours with substance | yeast gene YOR336W, metabolism protein genes | yeast gene YPL017C, metabolism protein genes | yeast gene YPR079W, cultured two hours with substance
2.0: yeast gene YNL241C (stress protein genes)
0.8: yeast gene YNL115C, cultured two hours with substance | yeast gene YNL208W, cultured two hours with substance | yeast gene YNL300W, cultured two hours with substance | yeast gene YOL047C, cultured two hours with substance | yeast gene YPL206C, cultured two hours with substance
2.1: yeast gene YOL031C, cultured two hours with substance
1.1: yeast gene YNL092W, cultured two hours with substance | yeast gene YNL104C, metabolism protein genes | yeast gene YNL234W, cultured two hours with substance | yeast gene YNL305C, cultured two hours with substance | yeast gene YNR033W, metabolism protein genes | yeast gene YOL126C, metabolism protein genes | yeast gene YOR099W, metabolism protein genes | yeast gene YPL052W, cultured two hours with substance
